Assay results taken from patent US20110237606A1, “3-Deazaneplanocin Derivatives” (AGENCY OF SCIENCE, TECHNOLOGY AND RESEARCH, priority 2008, published 2011).
Where a name gives a salt, the structure may show the parent alone.

Legend:
HCT115 ER-E2F1 cells = assay: E2F1-induced apoptosis assay (ER-E2F1 activated by 4-OHT), FACS subG1; format: cell-based; details: for E2F1 Induced apoptosis % Apoptosis: without 4-OHT (value before the parentheses), 'No activity'; for E2F1 Induced apoptosis (+4-OHT) % Apoptosis: with 4-OHT (value in parentheses)
Excerpt: Two assays were used to measure the compound's activity in induce apoptosis. The first assay measures the activity of compound to activate E2F1-induced apoptosis. In this assay, transcription factor E2F1 was engineered with ER receptor ligand binding domain. Addition of 4-OHT will be able to activate ER-E2F1 complex activity.
Fluorescence activated cell sorting (FACS) also known as flow cytometry is the technique used to determine apoptosis in this set of experiments. Apoptosis is indicated by cell populations with DNA content in the subG1 range. To determine the activity of these compounds, the inventors used HCT115 ER-E2F1 cells to determine the activity of the compound in inducing E2F1-dependent apoptosis. In this assay, addition of 4-OHT ligand will activate E2F1. DZNep has been show previously to activate OHT-induced apoptosis in this system.

colon cancer cells = assay: Apoptosis induction in combination with histone deacetylase inhibitor TSA; format: cell-based; details: 48 h
Excerpt: The compound may show activity to activate E2F1-induced apoptosis of at least about 15%, or at least about 20 or 25%, or about 15 to 25%, 15 to 30%, 15 to 20% or 20 to 25%. In this context, transcription factor E2F1, which is involved in the action of tumour suppressing proteins, was engineered with ER receptor ligand binding domain. (ER receptor is a nuclear hormone type of intracellular oestrogen receptor.) The compound may show activity to activate E2F1-induced apoptosis in the presence of 4-OHT of at least about 25% or of at least about 30, 40, 50, 60, 70 or 80%, or of about 25 to about 80%, or about 30 to 80, 50 to 80, 60 to 80 or 50 to 70%, e.g. about 25, 30, 35, 40, 45, 50, 55, 60, 65, 70, 75, 80 or 85%. 4-OHT is 4-hydroxytamoxifen, an anti-estrogenic metabolite of tamoxifen with a much higher affinity for oestrogen receptors than tamoxifen itself. The compound may show apoptosis induction in colon cancer cells with histone deacetylase inhibitor TSA (Trichostatin A) of at least about 40%, or at least about 50, 60, 70 or 80%, or about 40 to about 90%, or about 50 to 90, 70 to 90, 40 to 60 or 50 to 80%, e.g. about 40, 50, 60, 70, 80 or 90%. It may be capable of inhibiting the function of Polycomb repressive complex 2 (PRC2) proteins. In this context, activity % refers to the percentage of cell undergoing apoptosis (death) under the combination drug treatment of DZNep analogue with TSA for 48 h.
The second assay was designed to measure synergistic effect of new compounds with histone deacetylase inhibitor TSA for apoptosis induction in colon cancer cells. DZNep is known to synergy with TSA to induce strong apoptosis in colon cancer cells ((Jiang et al., Cancer Cell, 13, 529-541, 2008). Again the new compounds are compared with DZNep in the context of inducing apoptosis with TSA. Assays were conducted in accordance with Jiang et al (above).

Structure (SMILES)	E2F1 Induced apoptosis % Apoptosis (HCT115 ER-E2F1 cells)	Combination with HDAC inhibitor TSA % Apoptosis (colon cancer cells)	E2F1 Induced apoptosis (+4-OHT) % Apoptosis (HCT115 ER-E2F1 cells) [%]
Nc1ncnc2c1ncn2C1C=CCC1 (racemic) [Compound 29, (±)-9-(cyclopent-2-enyl)-9H-purin-6-amine]	No activity	No activity	–
CC1(C)O[C@H]2[C@H](n3cnc4c(N)ncnc43)CC[C@H]2O1 (racemic) [Compound 30, (±)-9-(2,2-dimethyl-tetrahydro-3aH-cyclopenta[d][1,3]dioxol-4-yl)-9H-purin-6-amine]	No activity	No activity	–
CC1(C)O[C@H]2[C@H](CC[C@H]2n2cnc3c(N)ncnc32)O1 (racemic) [Compound 31, (±)-9-(2,2-dimethyl-tetrahydro-3aH-cyclopenta[d][1,3]dioxol-4-yl)-9H-purin-6-amine]	No activity	No activity	–
Nc1ncnc2c1ncn2[C@@H]1CC[C@@H](O)[C@H]1O (racemic) [Compound 32, (±)-(1R,2S,3R)-3-(6-Amino-9H-purin-9-yl)-1,2-cyclopentanediol hydrochloride]	–	–	44
Nc1ncnc2c1ncn2[C@@H]1CC[C@H](O)[C@@H]1O (racemic) [Compound 33, (±)-(1R,2S,3S)-3-(6-Amino-9H-purin-9-yl)-1,2-cyclopentanediol hydrochloride]	No activity	No activity	–
CC1(C)O[C@@H]2[C@H](O1)C(COC(c1ccccc1)(c1ccccc1)c1ccccc1)=C[C@H]2n1cnc2c(Cl)nccc21 [Compound 1]	No activity	–	–
CC1(C)O[C@@H]2[C@H](O1)C(COC(c1ccccc1)(c1ccccc1)c1ccccc1)=C[C@H]2n1cnc2cncc(Cl)c21 [Compound 2]	No activity	–	–
OCC1=C[C@@H](n2cnc3c(Cl)nccc32)[C@H](O)[C@@H]1O [Compound 3]	No activity	No activity	–
OCC1=C[C@@H](n2cnc3ccnc(Cl)c32)[C@H](O)[C@@H]1O [Compound 4]	No activity	No activity	–
COC(=O)c1cn([C@@H]2C=C(CO)[C@@H](O)[C@H]2O)nn1 [Compound 5]	No activity	No activity	–
COC(=O)c1cn([C@@H]2C=C(CO)[C@@H](O)[C@H]2O)cn1 [Compound 6]	No activity	No activity	–
COC(=O)c1ncn([C@@H]2C=C(CO)[C@@H](O)[C@H]2O)n1 [Compound 7]	No activity	No activity	–
O=C(c1ccccc1)n1c(=O)ccn([C@@H]2C=C(CO)[C@@H](O)[C@H]2O)c1=O [Compound 8]	No activity	No activity	–
Cc1cn([C@@H]2C=C(CO)[C@@H](O)[C@H]2O)c(=O)n(C(=O)c2ccccc2)c1=O [Compound 9]	No activity	No activity	–
Cc1cn([C@@H]2C=C(CO)[C@@H](O)[C@H]2O)c(=O)[nH]c1=O [Compound 10]	No activity	No activity	–
O=c1[nH]cnc2c1ncn2[C@@H]1C=C(CO)[C@@H](O)[C@H]1O [Compound 11]	No activity	No activity	–

Structure (SMILES)	E2F1 Induced apoptosis % Apoptosis (HCT115 ER-E2F1 cells)	Combination with HDAC inhibitor TSA % Apoptosis (colon cancer cells)	E2F1 Induced apoptosis (+4-OHT) % Apoptosis (HCT115 ER-E2F1 cells) [%]
O=c1ccn([C@@H]2C=C(CO)[C@@H](O)[C@H]2O)c(=O)[nH]1 [Compound 12]	No activity	No activity	–
NC(=O)c1ncn([C@@H]2C=C(CO)[C@@H](O)[C@H]2O)n1 [Compound 13]	No activity	No activity	–
NC(=O)c1cn([C@@H]2C=C(CO)[C@@H](O)[C@H]2O)cn1 [Compound 14]	No activity	No activity	–
CC1(C)O[C@@H]2[C@H](O1)C(COC(c1ccccc1)(c1ccccc1)c1ccccc1)=C[C@@H]2O [Compound 15]	No activity	No activity	–
CC1(C)O[C@@H]2[C@H](O1)C(COC(c1ccccc1)(c1ccccc1)c1ccccc1)=C[C@H]2n1cnc2c(N)ncnc21 [Compound 16]	No activity	No activity	–
COC(=O)c1cn([C@@H]2C=C(COC(c3ccccc3)(c3ccccc3)c3ccccc3)[C@H]3OC(C)(C)O[C@H]32)cn1 [Compound 17]	No activity	No activity	–
Cc1cn([C@@H]2C=C(COC(c3ccccc3)(c3ccccc3)c3ccccc3)[C@H]3OC(C)(C)O[C@H]32)c(=O)n(C(=O)c2ccccc2)c1=O [Compound 18]	No activity	No activity	–
CC1(C)O[C@@H]2[C@H](O1)C(COC(c1ccccc1)(c1ccccc1)c1ccccc1)=C[C@H]2n1ccc(=O)n(C(=O)c2ccccc2)c1=O [Compound 19]	No activity	No activity	–
CC1(C)O[C@@H]2[C@H](O1)C(COC(c1ccccc1)(c1ccccc1)c1ccccc1)=C[C@H]2n1cnc2c(Cl)ncnc21 [Compound 20]	No activity	No activity	–
Nc1nccc2c1ncn2[C@@H]1C=C(CO)[C@@H](O)[C@H]1O [Compound 22, 3-Deazaneplanocin A, reference compound]	–	–	65
CC1(C)O[C@@H]2[C@H](O1)C(CO)=C[C@H]2n1cnc2c(N)nccc21 [Compound 23, 2′,3′-O-Isopropylidene-3-deazaneplanocin A]	–	No activity	25
Cl.Nc1nccc2c1ncn2[C@@H]1C[C@H](CO)[C@@H](O)[C@H]1O [Compound 24, 3-Deazaaristeromycin hydrochloride]	28%	70%	60
CC1=C[C@@H](n2cnc3c(N)ncnc32)[C@H](O)[C@@H]1O [Compound 26, (1S,2R,5R)-5-(6-amino-9H-purin-9-yl)-3-methylcyclopent-3-ene-1,2-diol hydrochloride]	–	–	40
Nc1ncnc2c1ncn2[C@@H]1C=C(COC(=O)c2ccccc2)[C@@H](O)[C@H]1O [Compound 27, ((3R,4S,5R)-3-(6-amino-9H-purin-9-yl)-4,5-dihydroxycyclopent-1-enyl)methyl benzoate hydrochloride]	–	–	30
CC1(C)O[C@@H]2[C@H](O1)C(CO)=C[C@H]2n1cnc2c(N)ncnc21 [Compound 28]	No activity	No activity	–
